Test results as given in patent publication US9901592B2 (priority 2008, dated 2018).
Converted amounts (≈) assume the structure as drawn. Where two headings read alike, the source gives them in different places.

Assays:
N. meningitidis = experiment: MIC, CLSI broth microdilution, invasive isolates; type: cell-based; conditions: Neisseria meningitidis; 62 N. meningitidis isolates
Procedure: Example. […] Colonization of the nasopharynx (NP) by NM can lead to invasive meningococcal disease. Chemoprophylaxis is used to eradicate NP colonization and prevent transmission to nonimmune contacts. […] 62 isolates (91.9% blood culture) of NM were collected from 29 medical centers in North and South America and Europe (1997-2008). […] Serological identification was performed for serogroups (SGs) B, C, Y and W135.

S. pyogenes [1] = experiment: microbe, parasite or virus in culture; type: cell-based; conditions: for MIC: Streptococcus pyogenes
S. aureus = experiment: mouse systemic infection model (PD50); type: in vivo
S. pneumoniae [2] = type: cell-based
S. pyogenes [3] = experiment: MIC of the strains of the mouse systemic infection model; type: cell-based; conditions: Streptococcus pyogenes
S. pyogenes [4] = type: cell-based; conditions: for Mutant selection frequencies: S. pyogenes
S. pyogenes [5] = experiment: mouse systemic infection model (PD50); type: in vivo
S. pneumoniae [6] = experiment: mouse systemic infection model (PD50); type: in vivo
[7] = S. pyogenes (macrolide susceptible)

Q: What does the source list for CC[C@H]1OC(=O)[C@H](C)[C@@H](O[C@H]2C[C@@](C)(OC)[C@@H](O)[C@H](C)O2)[C@H](C)[C@@H](O[C@@H]2O[C@H](C)C[C@H](N(C)C)[C@H]2O)[C@](C)(OC)C[C@@H](C)C(=O)[C@H](C)[C@@H](O)[C@]1(C)O [CLR, clarithromycin]?
A: MIC (N. meningitidis): 0.015 to 0.25 µg/mL (≈ 0.0201 to 0.334 µM); MIC50 (N. meningitidis): 0.03 µg/mL (≈ 0.0401 µM); MIC90 (N. meningitidis): 0.12 µg/mL (≈ 0.16 µM); strains with resistant clones / strains tested (S. pyogenes [1]; S. pyogenes): 1/4; MIC (S. pyogenes [1]; read-out: Initial MIC, strain 237 Macrolide-R [LA mutation], parent): 0.25 µg/mL (≈ 0.334 µM); MIC (S. pyogenes [1]; read-out: Initial MIC, strain 2011 Macrolide-R [mef(A)], parent): 4 µg/mL (≈ 5.35 µM); MIC (S. pyogenes [1]; read-out: Initial MIC, strain 2094 Macrolide-R [erm(A)], parent): 0.5 µg/mL (≈ 0.668 µM); MIC (S. pyogenes [1]; read-out: Initial MIC, strain 2132 Macrolide-S, parent): 0.03 µg/mL (≈ 0.0401 µM); MIC (S. pyogenes [1]; read-out: Initial MIC, strain 2368 Macrolide-R [erm(B)], parent): > 64 µg/mL; MIC (S. pyogenes [1]; read-out: MIC of parent of resistant clone, S. pyogenes): 500 µg/mL; MIC (S. pyogenes [1]; read-out: MIC of parents of resistant clones, S. pyogenes): 0.5 µg/mL; MIC (S. pyogenes [1]; read-out: MIC of resistant clones, S. pyogenes): > 64 µg/mL; MIC (S. pyogenes [1]; read-out: Parental MICs, S. pyogenes, 5 strains with varying resistotypes): 0.03 to 4 µg/mL (≈ 0.0401 to 5.35 µM); MIC (S. pyogenes [1]; read-out: Selected Resistance (MIC), strain 237 Macrolide-R [LA mutation], after serial passages in the drug): 1 µg/mL (≈ 1.34 µM); MIC (S. pyogenes [1]; read-out: Selected Resistance (MIC), strain 2011 Macrolide-R [mef(A)], after serial passages in the drug): 8 µg/mL (≈ 10.7 µM); MIC (S. pyogenes [1]; read-out: Selected Resistance (MIC), strain 2094 Macrolide-R [erm(A)], after serial passages in the drug): > 64 µg/mL; MIC (S. pyogenes [1]; read-out: Selected Resistance (MIC), strain 2132 Macrolide-S, after serial passages in the drug): 0.016 µg/mL (≈ 0.0214 µM); days until resistant clones (MIC increase) (S. pyogenes [1]; daily passages, max. 50): 6 days; Retest MIC after 10 Antibioticfree Subcultures (S. pyogenes [1]; strain 237 Macrolide-R [LA mutation], clone selected with CEM-101): 1 µg/mL; Retest MIC after 10 Antibioticfree Subcultures (S. pyogenes [1]; strain 237 Macrolide-R [LA mutation], clone selected with CLN): 0.5 µg/mL; Retest MIC after 10 Antibioticfree Subcultures (S. pyogenes [1]; strain 2011 Macrolide-R [mef(A)], clone selected with AZI): 4 µg/mL; Retest MIC after 10 Antibioticfree Subcultures (S. pyogenes [1]; strain 2094 Macrolide-R [erm(A)], clone selected with AZI): 1 µg/mL; Retest MIC after 10 Antibioticfree Subcultures (S. pyogenes [1]; strain 2094 Macrolide-R [erm(A)], clone selected with CEM-101): 8 µg/mL; Retest MIC after 10 Antibioticfree Subcultures (S. pyogenes [1]; strain 2094 Macrolide-R [erm(A)], clone selected with CLN): 1 µg/mL; Retest MIC after 10 Antibioticfree Subcultures (S. pyogenes [1]; strain 2094 Macrolide-R [erm(A)], clone selected with CLR): >64 µg/mL; Retest MIC after 10 Antibioticfree Subcultures (S. pyogenes [1]; strain 2094 Macrolide-R [erm(A)], clone selected with TEL): 8 µg/mL; Retest MIC after 10 Antibioticfree Subcultures (S. pyogenes [1]; strain 2132 Macrolide-S, clone selected with AZI): 0.25b μg/ml; Retest MIC after 10 Antibioticfree Subcultures (S. pyogenes [1]; strain 2368 Macrolide-R [erm(B)], clone selected with CEM-101): >64 µg/mL; Retest MIC after 10 Antibioticfree Subcultures (S. pyogenes [1]; strain 2368 Macrolide-R [erm(B)], clone selected with TEL): >64 µg/mL; PD50 (S. aureus; MRSA): 5.0 mg/kg; PD50 (S. aureus; MRSA 300 (CA)): 19.5 mg/kg; PD50 (S. aureus; S. aureus, single oral dose 1 hr post infection): 22.7 mg/kg; Mutant selection frequencies (S. pneumoniae [2]; S. pneumoniae, at 2×MIC): <1.0×10^−9-5.0×10^−7; single step mutation frequency (S. pneumoniae [2]; strain 1077 Macrolide-S, 2 × MIC): 1.1 × 10^−9; single step mutation frequency (S. pneumoniae [2]; strain 1077 Macrolide-S, 4 × MIC): <1.2 × 10^−10; single step mutation frequency (S. pneumoniae [2]; strain 1077 Macrolide-S, 8 × MIC): <1.2 × 10^−10; single step mutation frequency (S. pneumoniae [2]; strain 1635 Macrolide-R [erm(A)], 2 × MIC): <3.1 × 10^−9; single step mutation frequency (S. pneumoniae [2]; strain 1635 Macrolide-R [erm(A)], 4 × MIC): <3.1 × 10^−9; single step mutation frequency (S. pneumoniae [2]; strain 1635 Macrolide-R [erm(A)], 8 × MIC): <3.1 × 10^−9; single step mutation frequency (S. pneumoniae [2]; strain 3665 Macrolide-R [mef(A)], 2 × MIC): 5.0 × 10^−7; single step mutation frequency (S. pneumoniae [2]; strain 3665 Macrolide-R [mef(A)], 4 × MIC): <5.0 × 10^−10; single step mutation frequency (S. pneumoniae [2]; strain 3665 Macrolide-R [mef(A)], 8 × MIC): <5.0 × 10^−10; single step mutation frequency (S. pneumoniae [2]; strain 7127 Macrolide-S [S20N in L4, A105V in L22], 2 × MIC): <1.0 × 10^−9; single step mutation frequency (S. pneumoniae [2]; strain 7127 Macrolide-S [S20N in L4, A105V in L22], 4 × MIC): <1.0 × 10^−9; single step mutation frequency (S. pneumoniae [2]; strain 7127 Macrolide-S [S20N in L4, A105V in L22], 8 × MIC): <1.0 × 10^−9; MIC (S. pyogenes [3]; S. pyogenes (erythromycin R)): 1 µg/mL; MIC (S. pyogenes [3]; [7]): 0.015 µg/mL; Mutant selection frequencies (S. pyogenes [4]; at 2×MIC): <1.0×10^−10-1.7×10^−7; Mutant selection frequencies (S. pyogenes [4]; at 8×MIC): <1.0×10^−10-5.0×10^−9; single step mutation frequency (S. pyogenes [4]; strain 237 Macrolide-R [L4 mutation], 2 × MIC): <3.3 × 10^−10; single step mutation frequency (S. pyogenes [4]; strain 237 Macrolide-R [L4 mutation], 4 × MIC): <3.3 × 10^−10; single step mutation frequency (S. pyogenes [4]; strain 237 Macrolide-R [L4 mutation], 8 × MIC): <3.3 × 10^−10; single step mutation frequency (S. pyogenes [4]; strain 2094 Macrolide-R [erm(A)], 2 × MIC): 1.7 × 10^−7; single step mutation frequency (S. pyogenes [4]; strain 2094 Macrolide-R [erm(A)], 4 × MIC): 1.0 × 10^−7; single step mutation frequency (S. pyogenes [4]; strain 2094 Macrolide-R [erm(A)], 8 × MIC): 5.0 × 10^−9; single step mutation frequency (S. pyogenes [4]; strain 2132 Macrolide-S, 2 × MIC): <1.0 × 10^−10; single step mutation frequency (S. pyogenes [4]; strain 2132 Macrolide-S, 4 × MIC): <1.0 × 10^−10; single step mutation frequency (S. pyogenes [4]; strain 2132 Macrolide-S, 8 × MIC): <1.0 × 10^−10; PD50 (S. pyogenes [5]; S. pyogenes (erythromycin R)): 22.8 mg/kg; PD50 (S. pyogenes [5]; [7]): 24.8 mg/kg; PD50 (S. pneumoniae [6]; S. pneumoniae (macrolide susceptible)): 32.1 mg/kg; PD50 (S. pneumoniae [6]; S. pneumoniae (mefR)): >30 mg/kg; PD50 (S. pneumoniae [6]; S. pneumoniae serotype 19A): 5.03 mg/kg
